In patent US7728043B2, “Methods for treatment of beta-amyloid protein-induced ocular disease” (priority 1999, dated 2010):

How the values were obtained:
PC12 cells = test: MTT reduction assay, βA peptide-induced toxicity, PC12 cells; type: cell-based, rat; details: for ED50 of βA peptide toxicity to PC12 cells: peptide alone, collagen-coated 96-well plates; for Protection of PC12 cells from βA peptide insults (control study): even at 200 μg/ml, βA peptide(25-35) and βA peptide(1-42)
Description: (§1) The degree of βA insult was measured by 3-[4,5-dimethylthiazol-2-yl]-2,5-diphenyltetrazolium bromide (MTT) reduction assay. […] The detection of cell growth or cell death can be determined by observing the conversion of MTT to the colored product, MTT formazan, the concentration of which can be measured […] at 550 nm.
(§2) Cells were incubated in MTT solution (5 mg/ml) at 37° C. for 2 hours. During this time, cells were observed under a microscope every 15 min. Cells were incubated in Lysing buffer (100 μl) overnight at 37° C. Colorimetric determination of MTT reduction was made at 550 nm.
(§3) PC12 rat pheochromocytoma and IMR32 human neuroblastoma cells were obtained from the American Type Culture Collection (ATCC). HUVEC normal umbilical human vein endothelial cells were obtained from Clonetics (San Diego, Calif.). Cells were routinely cultured on a tissue culture plate (Corning, N.Y., N.Y.). PC12 cells were grown in high glucose Dulbecco's Modified Eagle Medium (DMEM), 10% horse serum, 5% fetal calf serum, and 1% penicillin/streptomycin. IMR32 cells were grown in 90% DMEM and 10% fetal calf serum with 1% penicillin/streptomycin. HUVEC cells were grown in EGM-2 Bullet Kit (Clonetics, San Diego, Calif.).
PC12 cells were cultured routinely on polystyrene-coated Corning tissue culture plates. […] The 96-well plates were coated with rat tail collagen (Boehringer Mannheim) in order to promote uniform PC12 cell attachment and growth.

HUVEC cells = test: MTT reduction assay, βA peptide-induced toxicity, HUVEC cells; type: cell-based, human
Description: as §1, §2, §3

IMR32 cells = test: MTT reduction assay, βA peptide-induced toxicity, IMR32 cells; type: cell-based, human; details: for ED50 of βA peptide toxicity to IMR32 cells: peptide alone
Description: as §1, §2, §3

[1] = test system: cells treated with βA peptide; test: Protection of cells from βA peptide insult, statements in words (MTT assay, cells not singled out); type: cell-based; details: MTT reduction assay; PC12, IMR32, HUVEC cells where named in the sentence
Description: as §1, §2

[2] = Antioxidant assay, scavenging of DPPH free radicals; details: for Antioxidant activity (DPPH free radical scavenging), in words: optical density change of DPPH radicals at 515 nm; for Antioxidant IC50: Table 2, synthesized curcuminoids, DPPH
Description: Kim et al., Neurosci Lett 303, 57 (2001) and Barik et al., Free Radic Biol Med 39, 811 (2005).
Using an antioxidant assay, the antioxidant potency of the compounds of the invention was evaluated. 1,1-Diphenyl-2-picrylhydrazyl (DPPH) is known to generate stable free radicals in aqueous and ethanolic solutions. The ability of the compounds of the invention to scavenge these free radicals was measured by observing the optical density change of DPPH radicals at 515 nm. Kim et al., Neurosci Lett 303, 57 (2001) and Barik et al., Free Radic Biol Med 39, 811 (2005).
The samples were prepared in various concentrations (200, 20, 2.0, and 0.2 μg/ml) by serial dilution of a stock solution (5 mg/ml) and were tested by the following procedure. Reaction mixtures containing test compounds (dissolved in DMSO) and 300 μM DPPH ethanolic solution in 96-well microtiter plates were incubated at 37° C. for 30 min. and absorbance was measured at 515 nm. Percent inhibition by sample treatment was determined by comparison with a DMSO-treated […] control group. IC50 values were determined from percent inhibition by sample. IC50 values denote the concentration of the tested compound that was required to scavenge 50% of the DPPH free radicals.

[3] = Table 3, ginger-derived natural product compounds
[4] = Table 2, synthesized curcuminoids

Compound | Anti-βA peptide(1-42) ED50 PC12 (PC12 cells; Table 4, ginkgo compounds) | Anti-βA peptide(25-35) ED50 PC12 (PC12 cells; Table 4, ginkgo compounds) | Anti-βA peptide(1-42) ED50 HUVEC (HUVEC cells; Table 4, ginkgo compounds) | Anti-βA peptide(25-35) ED50 HUVEC (HUVEC cells; Table 4, ginkgo compounds) | Anti-βA peptide(1-42) ED50 IMR32 (IMR32 cells; Table 4, ginkgo compounds) | Anti-βA peptide(25-35) ED50 IMR32 (IMR32 cells; Table 4, ginkgo compounds) | Protection of cells from βA peptide-induced toxicity, in words [1] | other results
CC1C(=O)OC2C(O)C34C5CC(C(C)(C)C)C36C(OC(=O)C6O)OC4(C(=O)O5)C12O (stereo not shown) [Ginkgolide B, reference compound] | toxic | toxic | toxic | toxic | toxic | toxic | do not possess biological activity | 
CC(C)(C)[C@]1(O)CC2OC(=O)CC23C(=O)OC2OC(=O)[C@H](O)C231 (single isomer, unassigned; (-)) [(−)-Bilobalide, reference compound] | toxic | toxic | toxic | toxic | toxic | toxic | do not possess biological activity | 
βA peptide (1-42): beta-amyloid peptide 1-42 used as the toxic insult [reference compound] |  |  |  |  |  |  |  | ED50 of βA peptide toxicity to PC12 cells (PC12 cells): 5.0 µg/mL; ED50 of βA peptide toxicity to IMR32 cells (IMR32 cells): 6.0 µg/mL
Cc1c(C)c2c(c(C)c1O)CCC(C)(CCCC(C)CCCC(C)CCCC(C)C)O2 (stereo not shown) [vitamin E, reference compound] |  |  |  |  |  |  |  | Protection of PC12 cells from βA peptide insults (control study) (PC12 cells): did not protect
CCCCCCCC/C=C/C(=O)CCc1ccc(O)c(OC)c1 [Compound 13, [9]-shogaol] |  |  |  |  |  |  | effectively protected | Anti-βA peptide(1-42) ED50 PC12 (PC12 cells; [3]): 4.0 µg/mL; Anti-βA peptide(25-35) ED50 PC12 (PC12 cells; [3]): 3.0 µg/mL; Anti-βA peptide(1-42) ED50 HUVEC (HUVEC cells; [3]): 8.0 µg/mL; Anti-βA peptide(25-35) ED50 HUVEC (HUVEC cells; [3]): 8.0 µg/mL; Antioxidant activity (DPPH free radical scavenging), in words [2]: None of these compounds exhibited significant antioxidant activity; Anti-βA peptide(25-35) ED50 IMR32 (IMR32 cells; [3]): 2.0 µg/mL
CCCCCCCCCCC(=O)CCc1ccc(O)c(OC)c1 [Compound 45, [9]-dihydroshogaol] |  |  |  |  |  |  | effectively protected | 
O=C(CCc1ccccc1)CC(=O)CCc1ccc(O)cc1 [Compound 7] |  |  |  |  |  |  | cytotoxic | Anti-βA peptide(1-42) ED50 PC12 (PC12 cells; [4]): toxic; Anti-βA peptide(25-35) ED50 PC12 (PC12 cells; [4]): toxic; Antioxidant IC50 [2]: >200 µg/mL; Anti-βA peptide(1-42) ED50 IMR32 (IMR32 cells; [4]): toxic; Anti-βA peptide(25-35) ED50 IMR32 (IMR32 cells; [4]): toxic
COc1ccc(/C=C/C(=O)CC(=O)CCc2ccc(O)cc2)cc1 [Compound 10] |  |  |  |  |  |  | cytotoxic | Anti-βA peptide(1-42) ED50 PC12 (PC12 cells; [4]): toxic; Anti-βA peptide(25-35) ED50 PC12 (PC12 cells; [4]): toxic; Antioxidant IC50 [2]: >200 µg/mL; Anti-βA peptide(1-42) ED50 IMR32 (IMR32 cells; [4]): toxic; Anti-βA peptide(25-35) ED50 IMR32 (IMR32 cells; [4]): toxic
O=C(CCc1ccc(O)cc1)CC(=O)CCc1ccc(O)cc1 [Compound 9] |  |  |  |  |  |  | protected | Anti-βA peptide(1-42) ED50 PC12 (PC12 cells; [4]): 9.0 µg/mL; Anti-βA peptide(25-35) ED50 PC12 (PC12 cells; [4]): 10.0 µg/mL; Antioxidant IC50 [2]: >200 µg/mL; Anti-βA peptide(1-42) ED50 IMR32 (IMR32 cells; [4]): 11.0 µg/mL; Anti-βA peptide(25-35) ED50 IMR32 (IMR32 cells; [4]): 12.0 µg/mL
Ginkgolide C [reference compound] | toxic | toxic | toxic | toxic | toxic | toxic | do not possess biological activity | 
CCCCCC/C=C\CCCCCCCc1cccc(O)c1C(=O)O [Compound 15] | 2.0 µg/mL | 3.0 µg/mL | 1.5 µg/mL | 5.0 µg/mL | 2.5 µg/mL | 3.5 µg/mL | protect | Antioxidant activity (DPPH free radical scavenging), in words [2]: do not possess antioxidant properties
CC1=C(/C=C/C(C)=C/C=C/C(C)=C/CO)C(C)(C)CCC1 [vitamin A, reference compound] |  |  |  |  |  |  |  | Protection of PC12 cells from βA peptide insults (control study) (PC12 cells): did not protect
O=c1c(O)c(-c2ccc(O)c(O)c2)oc2cc(O)cc(O)c12 [Quercetin, reference compound] | >20 µg/mL | >20 µg/mL | >20 µg/mL | >20 µg/mL | >20 µg/mL | >20 µg/mL | do not possess biological activity | 
C[C@@H]1C(=O)O[C@H]2C[C@@]34[C@H]5C[C@@H](C(C)(C)C)[C@]36[C@@H](OC(=O)[C@@H]6O)O[C@@]4(C(=O)O5)[C@]21O [Ginkgolide A, reference compound] | toxic | toxic | toxic | toxic | toxic | toxic | do not possess biological activity | 
O=C1O[C@H]([C@@H](O)CO)C(O)=C1O [vitamin C, reference compound] |  |  |  |  |  |  |  | Protection of PC12 cells from βA peptide insults (control study) (PC12 cells): did not protect
CC1=C(/C=C/C(C)=C/C=C/C(C)=C/C=C/C=C(C)/C=C/C=C(C)/C=C/C2=C(C)CCCC2(C)C)C(C)(C)CCC1 [β-carotene, reference compound] |  |  |  |  |  |  |  | Protection of PC12 cells from βA peptide insults (control study) (PC12 cells): did not protect
CCCCCCCCC=CC(=O)CCc1ccc(O)cc1 [Compound 50, [9]-demethoxyshogaol] |  |  |  |  |  |  | effectively protected | 
βA peptide (25-35): beta-amyloid peptide fragment 25-35 used as the toxic insult (GSNKGAIIGLM; Amyloid-beta protein 42; UniProt P05067 696-706, looked up, fragment) [reference compound] |  |  |  |  |  |  |  | ED50 of βA peptide toxicity to PC12 cells (PC12 cells): 1.0 µg/mL; ED50 of βA peptide toxicity to HUVEC cells (HUVEC cells; peptide alone): 6.0 µg/mL; ED50 of βA peptide toxicity to IMR32 cells (IMR32 cells): 3.0 µg/mL
O=C(C=C(O)C=Cc1ccccc1)CCc1ccc(O)cc1 [Compound 8] |  |  |  |  |  |  | cytotoxic | Anti-βA peptide(1-42) ED50 PC12 (PC12 cells; [4]): toxic; Anti-βA peptide(25-35) ED50 PC12 (PC12 cells; [4]): toxic; Antioxidant IC50 [2]: >200 µg/mL; Anti-βA peptide(1-42) ED50 IMR32 (IMR32 cells; [4]): toxic; Anti-βA peptide(25-35) ED50 IMR32 (IMR32 cells; [4]): toxic
